# Source: US9737535B2, “Methods for treating cancer using TOR kinase inhibitor combination therapy comprising administering substituted pyrazino[2,3-b]pyrazines” (Signal Pharmaceuticals, LLC, priority 2014, dated 2017)
# Where a name gives a salt, the structure may show the parent alone.
# Key:
# Assay in all cases: Anti-proliferation assay (ATPLite), Chalice synergy score
# Assay type in all cases: cell-based
# MCF7 = conditions: Compound 1 in combination with second active agent, mean self-cross + 2σ threshold 3.07
# Excerpt: (§1) Cells were thawed from a liquid nitrogen preserved state.
# (§2) The calculation for synergy score is provided below.
# (§3) If T≧V0:100*[1−(T−V0)/(V−V0)]
# MDA-MB-436 = conditions: Compound 1 in combination with second active agent, mean self-cross + 2σ threshold 1.91
# Excerpt: as §1, §2, §3
# MDA-MB-231 = conditions: Compound 1 in combination with second active agent, mean self-cross + 2σ threshold 2.61
# Excerpt: as §1, §2, §3
# HCC70 = conditions: Compound 1 in combination with second active agent; HCC-70; mean self-cross + 2σ threshold 3.45
# Excerpt: as §1, §2, §3
# MDA-MB-157 = conditions: Compound 1 in combination with second active agent, mean self-cross + 2σ threshold 4.68
# Excerpt: as §1, §2, §3
# HCC-1428 = conditions: Compound 1 in combination with the named second active agent, 72 h, mean of n = 3 experiments in triplicate
# Excerpt: as §1, §2, §3
# HCC-1937 = conditions: Compound 1 in combination with the named second active agent, 72 h, mean of n = 3 experiments in triplicate
# Excerpt: as §1, §2, §3
# Hs-578-T = conditions: Compound 1 in combination with second active agent, mean self-cross + 2σ threshold 4.09
# Excerpt: as §1, §2, §3
# BT-549 = conditions: Compound 1 in combination with the named second active agent, 72 h, mean of n = 3 experiments in triplicate
# Excerpt: as §1, §2, §3
# MDA-MB-468 = conditions: Compound 1 in combination with second active agent, mean self-cross + 2σ threshold 4.66
# Excerpt: as §1, §2, §3
# HCC-1806 = conditions: Compound 1 in combination with the named second active agent, 72 h, mean of n = 3 experiments in triplicate
# Excerpt: as §1, §2, §3
# BT-20 = system: BT-20; parameters: scale not given here; conditions: Compound 1 in combination with the named second active agent, 72 h, mean of n = 3 experiments in triplicate
# Excerpt: as §1, §2, §3
# HCC-1187 = system: HCC-1187; parameters: scale not given here; conditions: Compound 1 in combination with the named second active agent, 72 h, mean of n = 3 experiments in triplicate
# Excerpt: as §1, §2, §3
# HCC-1500 = system: HCC-1500; parameters: scale not given here; conditions: Compound 1 in combination with the named second active agent, 72 h, mean of n = 3 experiments in triplicate
# Excerpt: as §1, §2, §3
# BT-474 = conditions: Compound 1 in combination with the named second active agent, 72 h, mean of n = 3 experiments in triplicate
# Excerpt: as §1, §2, §3
SMILES,Synergy score (MCF7),Synergy score (MDA-MB-436),Synergy score (MDA-MB-231),Synergy score (HCC70),Synergy score (MDA-MB-157),Synergy score (HCC-1428),Synergy score (HCC-1937),Synergy score (Hs-578-T),Synergy score (BT-549),Synergy score (MDA-MB-468),Synergy score (HCC-1806),Synergy score (BT-20),Synergy score (HCC-1187),Synergy score (HCC-1500),Synergy score (BT-474)
N#Cc1c(O)c2c(-c3ccc(-c4ccccc4O)cc3)csc2[nH]c1=O [Compound A769662],0.46,0.06,0.17,0.07,0.70,0.34,0.07,0.39,0.29,0.77,0.54,0.11,3.70,0.80,–
CC[C@@H]1C(=O)N(C)c2cnc(Nc3ccc(C(=O)NC4CCN(C)CC4)cc3OC)nc2N1C1CCCC1 [BI 2536],3.30,2.95,2.92,12.60,5.08,–,16.20,4.48,6.91,9.61,0.43,5.18,3.28,4.47,9.25
N.N.O=C([O-])C1(C(=O)[O-])CCC1.[Pt+2] [Carboplatin],0.80,1.10,0.45,2.26,1.77,0.52,2.46,1.65,0.72,7.18,0.44,0.98,2.20,–,0.30
C[C@@H]1CN(CC(=O)Nc2ccc3c(c2)Cc2cccc(-c4cc(=O)cc(N5CCOCC5)o4)c2S3)C[C@H](C)O1 [KU-60019],0.04,0.13,0.08,0.21,0.13,0.11,0.04,0.11,0.18,0.19,0.38,0.05,1.24,0.98,–
Nc1ccccc1NC(=O)c1ccc(CNC(=O)OCc2cccnc2)cc1 [MS-275],7.69,7.83,11.70,9.37,8.10,–,–,8.44,–,9.25,–,–,–,–,–
O=C(NC(NC(=S)Nc1ccc(F)c([N+](=O)[O-])c1)C(Cl)(Cl)Cl)C(c1ccccc1)c1ccccc1 (centres unmarked) [CGK733],0.66,0.84,1.64,3.03,1.88,0.82,1.48,2.45,1.74,–,1.51,0.72,2.01,0.55,–
"COc1cccc2c1C(=O)c1c(O)c3c(c(O)c1C2=O)C[C@@](O)(C(=O)CO)C[C@@H]3O[C@H]1C[C@H](N)[C@H](O)[C@H](C)O1 [Doxorubicin Hcl, Doxorubicin HCl]",–,3.89,–,4.00,8.50,0.96,6.92,5.85,4.78,6.36,3.55,3.96,4.45,2.70,1.25
COc1cc2nccc(Oc3ccc(NC(=O)C4(C(=O)Nc5ccc(F)cc5)CC4)cc3)c2cc1OC [XL184],4.34,0.90,–,1.47,–,1.19,2.15,3.19,0.52,1.84,1.44,3.67,1.29,1.20,1.51
NS(=O)(=O)OC[C@@H]1C[C@@H](n2ccc3c(N[C@H]4CCc5ccccc54)ncnc32)C[C@@H]1O [MLN-4924],0.94,–,–,0.46,6.73,3.68,9.15,3.55,2.83,15.10,2.90,1.78,7.09,1.31,8.59
C/C=C1\NC(=O)[C@H]2CSSCC/C=C/[C@H](CC(=O)N[C@H](C(C)C)C(=O)N2)OC(=O)[C@H](C(C)C)NC1=O [Romidepsin],–,5.84,9.27,6.74,5.71,–,–,–,–,7.26,–,–,–,–,–
CC1=C(C(=O)Nc2cc3cn[nH]c3cc2F)C(c2ccc(C(F)(F)F)cc2)CC(=O)N1 (centres unmarked) [GSK429286A],0.19,0.57,2.14,–,1.95,–,0.05,3.35,1.72,0.13,0.51,–,4.54,0.19,–
C[C@@H](Oc1cc(-c2cnn(C3CCNCC3)c2)cnc1N)c1c(Cl)ccc(F)c1Cl [Crizotinib],3.06,1.30,–,3.31,2.97,–,2.90,–,0.94,–,3.08,2.70,2.32,–,1.07
O=C(/C=C/c1cccnc1)NCCCCC1CCN(C(=O)c2ccccc2)CC1 [FK-866],0.04,0.97,–,0.30,–,0.20,0.60,5.32,0.11,0.28,0.00,0.30,0.25,1.15,0.60
CCN(CCO)CCCOc1ccc2c(Nc3cc(CC(=O)Nc4cccc(F)c4)[nH]n3)ncnc2c1 [AZD1152-HQPA (Barasertib)],–,–,–,–,–,1.95,2.29,–,–,–,1.32,6.90,6.69,5.73,1.51
Nc1ccn([C@@H]2O[C@H](CO)[C@@H](O)C2(F)F)c(=O)n1 [Gemcitabine Hydrochloride],0.38,3.05,2.51,–,2.53,–,3.78,0.96,1.86,5.52,0.84,1.85,1.83,3.72,0.17
CNC(=O)c1cc(Oc2ccc(NC(=O)Nc3ccc(Cl)c(C(F)(F)F)c3)cc2)ccn1 [Sorafenib],1.18,–,1.55,2.51,0.56,–,2.10,1.65,0.00,–,–,1.16,–,0.69,2.32
CCN(CCO)CCCOc1ccc2c(Nc3cc(CC(=O)Nc4cccc(F)c4)[nH]n3)ncnc2c1 [AZD1152-HQPA(Barasertib)],2.57,5.60,1.42,9.50,1.81,–,–,2.43,–,9.13,–,–,–,–,–
O=C(Nc1cccc(Nc2ncc(Br)c(NCCc3c[nH]cn3)n2)c1)N1CCCC1 [BX-912],0.69,2.50,–,6.05,6.65,2.05,0.44,6.07,1.52,8.29,0.57,1.32,4.10,2.11,0.87
O=C(/C=C/c1cccc(S(=O)(=O)Nc2ccccc2)c1)NO [Belinostat],7.66,7.84,12.40,10.10,7.58,–,–,7.48,–,6.75,–,–,–,–,–
